Results taken from US20050137242A1, “Betamimetics having a long-lasting activity, processes for preparing them, and their use as medicaments” (Boehringer Ingelheim Pharma GmbH & Co. KG, priority 2000, published 2005).
Counter-ions that a name gives are not always drawn.

COc1ccc(CNc2cc(C(O)CNC(C)(C)CCn3cnc4ccccc43)ccc2O)cc1 (stereo not shown) (as salt: acetate) [Example 3, 1-[3-(4-methoxybenzylamino)-4-hydroxyphenyl]-2-[4-(1-benzimidazolyl)-2-methyl-2-butylamino]ethanol]
melting point: 154 to 155 °C

COc1ccc(-c2ncn(CCC(C)(C)NCC(O)c3ccc(O)c4c3OCC(=O)N4)n2)cc1 (stereo not shown) (as salt: hydrochloride) [Example 5, 1-[2H-5-hydroxy-3-oxo-4H-1,4-benzoxazin-8-yl]-2-{4-[3-(4-methoxyphenyl)-1,2,4-triazol-3-yl]-2-methyl-2-butylamino}ethanol]
melting point: 175 to 179 °C

CCCCOc1ccc(CC(C)(C)NCC(O)c2ccc(O)c3c2OCC(=O)N3)cc1 (stereo not shown) (as salt: methanesulfonate) [Example 2, 1-[2H-5-hydroxy-3-oxo-4H-1,4-benzoxazin-8-yl]-2-[3-(4-n-butyloxyphenyl)-2-methyl-2-propylamino]ethanol]
melting point: 189 to 190 °C

COc1ccc(CC(C)(C)NCC(O)c2ccc(O)c3c2OCC(=O)N3)cc1 (stereo not shown) (as salt: hydrochloride) [Example 4, 1-[2H-5-hydroxy-3-oxo-4H-1,4-benzoxazin-8-yl]-2-[3-(4-methoxyphenyl)-2-methyl-2-propylamino]ethanol]
melting point: 202 to 205 °C
